According to patent US20090023186A1, “USE OF VALPROIC ACID FOR ENHANCING PRODUCTION OF RECOMBINANT PROTEINS IN MAMMALIAN CELLS” (EXCELLGENE SA, priority 2007, published 2009):

Test system: HEK293E cells
Test: Stable cell lines, IgG batch titer by ELISA (Example 5)
Format: cell-based, Human
Conditions: 4 mmol/l final VPA; stable mass culture; 5 days after VPA addition
Description: 20 million suspension-adapted HEK293E cells were resuspended in 1 ml of Ex-Cell 293 HEK 293 serum-free medium with 4 mmol/l L-glutamine (Cat. No. 14571C-1000M; Lot No. 6A0093; SAFC Biosciences, Lenexa, Kans., USA, “Ex-Cell” medium; note: “Ex-Cell” medium-as used herein-refers to a medium comprising 4 mmol/l L-glutamine) in a 50-ml filter tube each (TPP AG, Trasadingen, Switzerland; Cat. No. 87050, Lot 20050174). Then 50 μg plasmid DNA at a concentration of 1 μg/μl was added in each tube with the following composition 5% (2.5 μg) p-LC (SEQ ID NO: 1) 5% (2.5 μg) p-HC (SEQ ID NO: 3) 90% (45 μg) p-puro (SEQ ID NO: 13). Plasmid p-LC comprises the genetic information for the production of the light chain of an IgG antibody, plasmid p-HC comprises the genetic information for the production of the heavy chain of an IgG antibody, plasmid p-puro comprises the genetic information for the enzyme puromycin-N-acetyl-transferase, which is encoded by the pac gene, the puromycin resistance gene. […] In short, Goat anti-human kappa light chain IgG (Biosource) was used for coating the ELISA-plates, and with AP-conjugated goat anti-human gamma chain IgG (Biosource) the synthesized IgG1 was detected. […] Absorption was measured at 405 nm against 490 nm using a microplate reader (SPECTRAmaxTM340; Molecular Devices, Palo Alto, Calif., USA).

CCCC(CCC)C(=O)O [VPA, valproic acid]
Batch titer HEK293E: 47.8 ± 4.8 mg/L
